The values below come from patent US5447719A, “β-glucuronidase inhibitor” (priority 1991, dated 1995).

The target of one data set is T1, β-glucuronidase (Escherichia coli, UniProt P05804).
T1 construct: purchased Sigma Chemical Co
As to the kind of experiment: β-glucuronidase inhibition: residual activity (production of formula III compound from formula II compound, HPLC). It is filed as biochemical. As to conditions: formula II substrate 100 nmol/ml, pH 6.8, 37° C., 20 min; for remaining activity at 0.0167 µM: 16.7 nM; for remaining activity at 0.0333 µM: 33.3 nM; for remaining activity at 0.1667 µM: 166.7 nM. The method, then: β-glucuronidase (manufactured by Sigma Chemical Co.) derived from Escherichia coli was added to a reaction solution comprising 50 μl of potassium phosphate buffer (pH: 6.8), a solution of a compound (100 nmol/ml) represented by the formula II and produced by Reference Example which will be described later and a specimen, and a reaction was allowed to proceed at 37° C. for 20 min. A glycine buffer (pH: 10.4) was added to terminate the reaction. 10 μl of the reaction mixture and 100 μl of an internal standard (camptothecin) solution were added to 1 ml of a 0.01N aqueous hydrochloric acid solution, and the mixture was applied to Bond Elute C18 (Analytichem), washed with water and 0.01N aqueous hydrochloric acid solution. Elution was effected with acetonitrile/water (1:2). 100 μl of the eluate obtained by elution with acetonitrile/water (1:2) was analyzed by high performance liquid chromatography (HPLC) under the following conditions, and the β-glucuronidase activity was calculated by using the amount of production of the compound represented by the formula III as an indication.
Apparatus: high performance liquid chromatograph HLC-803D manufactured by Toyo Soda
Analytical column: Tosoh ODS-80TM 250×4.6 mm (I.D.)
Thermostatic chamber of column: Tosoh CO-8011 40° C.
Guard column: Tosoh TSKguradgel ODS-120T
Detector: Shimazu Fluorescence HPLCMonitor RF-530
Detection wavelength: Ex380nm Em556nm
Autosampler: Tosoh AS-8000
Eluent: acetonitrile/water (1:2)

A further data set relates to bone marrow. The following applies: cited from earlier work.

T1 sequence (P05804 whole entry): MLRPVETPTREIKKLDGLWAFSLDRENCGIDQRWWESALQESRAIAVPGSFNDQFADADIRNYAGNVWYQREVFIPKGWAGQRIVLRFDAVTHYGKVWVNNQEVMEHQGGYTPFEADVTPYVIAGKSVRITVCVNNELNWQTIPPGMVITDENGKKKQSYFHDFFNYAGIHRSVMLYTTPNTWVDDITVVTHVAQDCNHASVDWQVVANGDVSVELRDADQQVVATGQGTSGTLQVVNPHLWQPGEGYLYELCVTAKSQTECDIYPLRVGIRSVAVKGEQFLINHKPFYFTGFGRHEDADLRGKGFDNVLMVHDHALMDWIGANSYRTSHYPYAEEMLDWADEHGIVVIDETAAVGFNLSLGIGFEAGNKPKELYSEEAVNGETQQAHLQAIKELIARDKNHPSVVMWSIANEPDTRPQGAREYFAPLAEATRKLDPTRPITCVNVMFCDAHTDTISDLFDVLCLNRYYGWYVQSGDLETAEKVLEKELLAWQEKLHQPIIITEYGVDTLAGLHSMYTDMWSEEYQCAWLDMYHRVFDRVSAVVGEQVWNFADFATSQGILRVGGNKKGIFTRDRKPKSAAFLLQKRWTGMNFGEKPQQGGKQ

Take `O=C(O)[C@H]1O[C@@H](Oc2cc3oc(-c4ccccc4)cc(=O)c3c(O)c2O)[C@H](O)[C@@H](O)[C@@H]1O` [Baicalin, baicalin]: on β-glucuronidase, the remaining activity (usually what remains of the control signal, in per cent) at 0.0167 µM worked out at 19%; the remaining activity at 0.0333 µM amounted to 10.7%; the remaining activity at 0.1667 µM was determined as 2.3%.

Regarding `CC[C@@]1(O)C(=O)OCc2c1cc1n(c2=O)Cc2cc3ccccc3nc2-1` [Camptothecin, camptothecin], the toxicity result in the data set with bone marrow is recorded as “strong inhibition of bone marrow”.

As to `O=C(O)[C@H]1O[C@@H](Oc2cc(-c3cc(=O)c4c(O)cc(O)cc4o3)ccc2O)[C@H](O)[C@@H](O)[C@@H]1O` [Luteolin-3'-glucuronide, luteolin-3'-glucuronide], at β-glucuronidase, the remaining activity at 0.0167 µM came to 28.5%, the remaining activity at 0.0333 µM was found to be 13.2% and the remaining activity at 0.1667 µM was 2.1%.

For `COc1c(O[C@@H]2O[C@H](C(=O)O)[C@@H](O)[C@H](O)[C@H]2O)cc2oc(-c3ccccc3)cc(=O)c2c1O` [Oroxylin A-7-O-glucuronide, oroxylin A-7-O-glucuronide], on β-glucuronidase, the remaining activity at 0.0167 µM came out at 31.1%, the remaining activity at 0.0333 µM is 17% and the remaining activity at 0.1667 µM stood at 3%.
